Assays:
androgen receptor (AR) = molecular target: T1, androgen receptor (AR) (Rattus norvegicus, UniProt P15207); test: AR competitive binding with 3H-mibolerone in cytosol
T1 construct: The minimum concentration of ^3H-MIB to saturate AR sites in the cytosol preparation was 1 nM; from tissue; host or cells: cytosol
T1 sequence (P15207 1-902): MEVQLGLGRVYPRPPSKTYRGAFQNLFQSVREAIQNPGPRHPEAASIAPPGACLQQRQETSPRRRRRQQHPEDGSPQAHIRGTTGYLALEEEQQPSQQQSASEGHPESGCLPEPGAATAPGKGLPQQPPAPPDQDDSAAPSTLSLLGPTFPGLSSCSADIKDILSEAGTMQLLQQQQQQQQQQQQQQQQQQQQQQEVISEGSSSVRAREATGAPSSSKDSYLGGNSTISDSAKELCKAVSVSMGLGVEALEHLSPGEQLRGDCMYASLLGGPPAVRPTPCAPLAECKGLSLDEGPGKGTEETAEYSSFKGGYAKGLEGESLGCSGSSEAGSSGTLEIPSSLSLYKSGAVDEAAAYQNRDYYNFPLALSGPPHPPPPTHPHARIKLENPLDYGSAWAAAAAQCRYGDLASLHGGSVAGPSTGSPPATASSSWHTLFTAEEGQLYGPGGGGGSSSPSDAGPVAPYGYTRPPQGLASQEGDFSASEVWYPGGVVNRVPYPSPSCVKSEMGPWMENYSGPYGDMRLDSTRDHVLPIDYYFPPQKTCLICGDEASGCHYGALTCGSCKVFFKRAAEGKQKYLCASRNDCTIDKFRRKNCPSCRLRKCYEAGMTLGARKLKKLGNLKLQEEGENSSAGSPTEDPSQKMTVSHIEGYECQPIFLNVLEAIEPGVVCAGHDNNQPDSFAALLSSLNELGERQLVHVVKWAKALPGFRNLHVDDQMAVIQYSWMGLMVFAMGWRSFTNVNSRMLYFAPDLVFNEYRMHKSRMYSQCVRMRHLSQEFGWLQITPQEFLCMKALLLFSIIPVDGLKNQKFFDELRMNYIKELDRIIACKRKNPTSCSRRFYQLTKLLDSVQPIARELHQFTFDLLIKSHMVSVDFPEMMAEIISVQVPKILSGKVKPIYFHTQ
Procedure: For the determination of non-specific binding, separate experiments were conducted by adding 1,000 nM MIB to the incubate. Unless otherwise indicated, all experiments were repeated three times or more. […] Radioactivity was counted in a liquid scintillation counter (Model LS6800, Beckman Instruments Inc., Palo Alto, Calif.).
To determine the Kd of MIB, data were analyzed using a modified form of the Scatchard equation:
where B was the concentration of specifically-bound ^3H-MIB in the incubate, F was the concentration of free ^3H-MIB in the incubate, and Bmax was the maximum concentration of ^3H-MIB specifically bound to AR, which is also the concentration of available AR binding sites in the incubate. […]
For competition binding experiments, competitive displacement curves were constructed for each ligand with percent specific binding (specific binding of ^3H-MIB at a particular ligand concentration expressed as a percentage of the specific binding of ^3H-MIB in the absence of ligand) on the vertical axis and ligand concentration on the horizontal axis. […]
where B0 is the specific binding of ^3H-MIB in the absence of ligand, and C is the ligand concentration. Binding affinities of the ligands were then compared using the equilibrium dissociation constant (Ki) of each ligand, as calculated using the equation below: […]

[1] = Cockshott et al. 1991; cited from earlier work

| SMILES | Ki (androgen receptor (AR)) | Ki value lower than that of R-Bicalutamide (androgen receptor (AR); R-isomer) | share of radioactivity in plasma accounted for by parent compound [1] |
| --- | --- | --- | --- |
| C[C@](O)(CS(=O)(=O)c1ccc(I)cc1)C(=O)Nc1ccc(C#N)c(C(F)(F)F)c1 [Compound 2] | 3.1 nM | 73% | – |
| CC(O)(CS(=O)(=O)c1ccc(F)cc1)C(=O)Nc1ccc(C#N)c(C(F)(F)F)c1 (racemic) [racemic ^14C-labeled bicalutamide, bicalutamide] | – | – | virtually all of the radioactivity in plasma |

From patent publication US20020098148A1, “NON-STEROIDAL RADIOLABELED AGONIST/ANTAGONIST COMPOUNDS AND THEIR USE IN PROSTATE CANCER IMAGING” (priority 1997, published 2002)
